This passage reports IC50 results from ChEMBL document CHEMBL5727000, “Carboxamide or sulfonamide substituted thiazoles and related derivatives as modulators for the orphan nuclear receptor ROR[γ]” (2019).

Assay [1] in a line: RORgamma Gal4 Reporter Gene Assay (FF): Cells were incubated for additional 16 h before firefly (FF) luciferase activities were measured sequentially in the same cell extract using a Dual-Light-Luciferase-Assay system (Dyer et al., Anal. Biochem. 2000, 282:158). All experiments were done at least in triplicates. (In general: Reporter assays use an easily measured gene product as a stand-in for the process of interest.)

The nature of assay [2]: RORgamma Gal4 Reporter Gene Assay (REN): Cells were incubated for additional 16 h before renilla (REN) luciferase activities were measured sequentially in the same cell extract using a Dual-Light-Luciferase-Assay system (Dyer et al., Anal. Biochem. 2000, 282:158). All experiments were done at least in triplicates.

Each structure is given as a SMILES string.

One may read the IC50 as the concentration needed to halve the response being measured. Higher therefore signals weaker potency. As for `C[C@H](NC(=O)c1cc(-c2sc(C(=O)NCC(C)(C)c3noc(=O)[nH]3)nc2CC2CCCCC2)cc(C2(C)CC2)c1)C(F)(F)F`, the half-maximal inhibitory concentration (IC50) in assay [1] and in assay [2] was 5.01 nM each time. For the molecule `CC(C)(C)NS(=O)(=O)c1ccc(-c2sc(C(=O)NC3CCOCC3)nc2CC2CCCCC2)cc1C(F)(F)F`, the figures for the IC50 in assay [1] and in assay [2] were 10 nM and 5.01 nM, respectively.

Regarding `C[C@H](NS(=O)(=O)c1ccc(-c2sc(C(=O)N3CC4(C3)CS(=O)(=O)C4)nc2CC2CC2)c2ccccc12)C(F)(F)F`, the half-inhibitory concentration (IC50) in assay [1] and in assay [2] was 6.31 nM each time. Turning to `CC(C)(C)NS(=O)(=O)c1ccc(-c2oc(C(=O)NC3CCOCC3)nc2CC2CCCCC2)c2ccccc12`, the figures for the half-inhibitory concentration (IC50) in assay [1] and in assay [2] were 15.8 nM and 12.6 nM, respectively. Take `CC(C)(C)NS(=O)(=O)c1ccc(-c2sc(C(=O)N[C@H]3C[C@H](C(=O)O)C3)nc2Cc2ccccc2)c2ccccc12`: inhibition in assay [1] was half-maximal at 26.5 nM (IC50).

`CC(C)(C)NS(=O)(=O)c1ccc(-c2sc(C(=O)NC3CCC3)nc2CC2CCCCC2)c(OC(F)F)c1Cl`: the half-maximal inhibitory concentration (IC50) is 10 nM in assay [1] and 5.01 nM in assay [2]. On to `CC(C)(C)c1cc(-c2sc(C(=O)NC3CC(OC=O)C3)nc2CC2CCCCC2)nc(C2(C)CC2)n1` (stereo not drawn), for which the IC50 was found to be 158 nM in assay [1] and 200 nM in assay [2]. In the same order, the values of `CC(C)(C)NS(=O)(=O)c1ccc(-c2sc(C(=O)NC3CCC3)nc2CC2CCCCC2)c(OC(F)(F)F)c1` are 10 nM and 6.31 nM. In the same order, the values of `CC(C)(C)c1cc(-c2sc(C(=O)NC3CC(OC=O)C3)nc2CC2CCCCC2)nc(C(C)(C)C)n1` (stereo not drawn) are 126 nM and 126 nM.

Regarding `O=C(NC1CCS(=O)(=O)CC1)c1nc(CC2CCCCC2)c(-c2ccc(C3(O)CCC3)c3ccccc23)s1`, the IC50 came out at 501 nM in assay [1] and 631 nM in assay [2]. As for `O=CO[C@H]1C[C@H](NC(=O)c2nc(CC3CCCCC3)c(-c3ccc(OC(F)(F)F)c4ccccc34)s2)C1`, the IC50 in assay [1] and in assay [2] was 126 nM in each case. In the case of `CC(=O)NS(=O)(=O)c1nc(-c2cc(C(C)(C)C)cc(C(C)(C)C)c2)c(CC2CCCCC2)s1`, the IC50 in assay [1] and in assay [2] was less than 20000 nM each time. With `CC(C)(O)CNC(=O)c1nc(CC2CCC2)c(-c2ccc(S(=O)(=O)NC(C)(C)C)c(Cl)c2OC(F)F)s1`, the 50% inhibitory concentration (IC50) in assay [1] worked out at 31.6 nM; in assay [2], 39.8 nM. `CC(C)(O)CNC(=O)c1nc(CC2CCCCC2)c(-c2ccc(S(N)(=O)=O)c(Cl)c2Cl)s1`: the 50% inhibitory concentration (IC50) in assay [1] and in assay [2] was less than 20000 nM each time. Take `CC(C)(C)c1cc(-c2nc(C(=O)N[C@H]3C[C@H](OC=O)C3)oc2CC2CCCCC2)cc(C2(C)CC2)c1`: the IC50 came to 398 nM in assay [1] and 251 nM in assay [2].

Regarding `O=CO[C@H]1C[C@H](NC(=O)c2nc(CC3CCCCC3)c(-c3ccc(OCC(F)(F)F)c4ccccc34)s2)C1`, the IC50 turned out to be 316 nM in assay [1] and 631 nM in assay [2]. On to `CC(C)(C)NS(=O)(=O)c1ccc(-c2sc(C(=O)NC3CCC3)[n+]([O-])c2CC2CCCCC2)c2ccccc12`, for which the IC50 in assay [1] and in assay [2] was 31.6 nM in each case. Consider `CC(C)(C)NS(=O)(=O)c1ccc(-c2sc(C(=O)NC3CCOCC3)nc2CC2CCCCC2)cc1C(C)(C)C`, for which the IC50 in assay [1] was 15.8 nM; in assay [2], 12.6 nM. In the same order, the values of `CC(C)(O)CNC(=O)c1nc(C(=O)C2CCC(C)(C)CC2)c(-c2ccc(S(=O)(=O)NC(C)(C)C)c3ccccc23)s1` are 25.1 nM and 31.6 nM.

For the molecule `CC(C)(O)CN1CCN(C(=O)c2nc(CC3CCCCC3)c(-c3ccc(S(=O)(=O)NC(C)(C)C)c4ccccc34)s2)CC1`, the results for the IC50 in assay [1] and in assay [2] were 158 nM and 126 nM, respectively. In the same order, the values of `CC(C)(C)c1cc(-c2nc(C(N)=O)oc2CC2CCCCC2)cc(C(C)(C)C)c1` are less than 20000 nM and less than 20000 nM. For `CCOC(=O)c1nc(Cc2ccccc2)c(-c2ccc(S(=O)(=O)NC(C)(C)C)c3ccccc23)s1`, in that order: 12.6 nM and 10 nM. For `COc1ccc(-c2sc(C(=O)N[C@H]3C[C@H](OC=O)C3)nc2CC2CCCCC2)c2ccccc12`, in that order: 251 nM and 251 nM. Consider `CC(C)(C)c1cc(-c2sc(S(=O)(=O)NC(=O)OCc3ccccc3)nc2CC2CCCCC2)cc(C2(C)CC2)c1`, for which the IC50 in assay [1] and in assay [2] was less than 20000 nM each time.

Take `CC(C)(C)NS(=O)(=O)c1cnc(-c2sc(C(=O)N[C@H]3C[C@H](C(=O)O)C3)nc2CC2CCCCC2)nc1C(C)(C)C`: the values for the half-maximal inhibitory concentration (IC50) in assay [1] and in assay [2] were 200 nM and 398 nM, respectively. Turning to `CC(C)(C)NS(=O)(=O)c1ccc(-c2oc(C(=O)N3CC4(CCS(=O)(=O)CC4)C3)nc2CC2CCCCC2)c2ccccc12`, the IC50 in assay [1] worked out at 1260 nM. For `CC(C)(C)NS(=O)(=O)c1ccc(-c2oc(C(=O)NC3CCS(=O)(=O)CC3)nc2CC2CCCCC2)c(Cl)c1Cl`, the IC50 in assay [1] turned out to be 3.98 nM; in assay [2], 6.31 nM. For the molecule `CC(C)(C)c1cc(-c2sc(C(=O)NC3CCC3)[n+]([O-])c2CC2CCCCC2)cc(C2(C)CC2)c1`, the IC50 in assay [1] was 31.6 nM; in assay [2], 25.1 nM.

In the case of `CC(C)(O)CNC(=O)c1nc(CC2CCCCC2)c(-c2ccc(S(=O)(=O)NC(C)(C)C)c(Cl)c2Cl)o1`, the IC50 in assay [1] worked out at 39.8 nM; in assay [2], 31.6 nM. Consider `CCC(C)(C)NS(=O)(=O)c1ccc(-c2sc(C(=O)NCc3ncc(S(C)(=O)=O)s3)nc2C(=O)N2CCC(C)CC2)c(Cl)c1C`, for which, in assay [2], half-maximal inhibition (IC50) was put at 20 nM. Still for that read-out and setting: with `CC(C)(C)NS(=O)(=O)c1ccc(-c2sc(C(=O)NCC3(O)CCOCC3)nc2CC2CCCCC2)cc1C(C)(C)O` the figure was 20 nM.
